Reference: PubChem BioAssay (NCI)
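All cell lines were grown in 96-well plates and treated with compound for 48 hours. Here, GI50 denotes the concentration required for 50% inhibition of growth. Definition used: TGI = concentration required for complete inhibition of growth.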

Columns and labels:
Assay in all cases: NCI anticancer screen, dose series, 48 h
SF-268 CNS = tested on: SF-268 CNS
MALME-3M melanoma = tested on: MALME-3M melanoma
RPMI-8226 leukemia = tested on: RPMI-8226 leukemia
CAKI-1 renal = tested on: CAKI-1 renal
NCI-H226 lung = tested on: NCI-H226 lung
MOLT-4 leukemia = tested on: MOLT-4 leukemia
OVCAR-5 ovarian = tested on: OVCAR-5 ovarian
SF-539 CNS = tested on: SF-539 CNS
HCT-116 colon = tested on: HCT-116 colon
UO-31 renal = tested on: UO-31 renal

SMILES | TGI (SF-268 CNS) | TGI (MALME-3M melanoma) | TGI (RPMI-8226 leukemia) | TGI (CAKI-1 renal) | TGI (NCI-H226 lung) | TGI (MOLT-4 leukemia) | TGI (OVCAR-5 ovarian) | TGI (SF-539 CNS) | TGI (HCT-116 colon) | TGI (UO-31 renal) | GI50 (SF-268 CNS) | GI50 (MALME-3M melanoma) | GI50 (RPMI-8226 leukemia) | GI50 (CAKI-1 renal) | GI50 (NCI-H226 lung) | GI50 (MOLT-4 leukemia) | GI50 (OVCAR-5 ovarian) | GI50 (SF-539 CNS) | GI50 (HCT-116 colon) | GI50 (UO-31 renal)
CCOC(=O)/C(=C/c1ccc[nH]1)P(=O)(OCC)OCC | > 100 µM | > 100 µM | > 100 µM | > 100 µM | > 100 µM | > 100 µM | > 100 µM | > 100 µM | > 100 µM | > 100 µM |  |  |  |  |  |  |  |  |  | 
CC(C)c1nc(Cl)c(Cl)c(Cl)n1 | 9.29 µM | 19 µM | 14.7 µM | 11.8 µM | 38.9 µM | 11.4 µM | 17.7 µM | 25.2 µM | 14.2 µM | 2.66 µM |  |  |  |  |  |  |  |  |  | 
ClCc1ccc(Cn2cnc3nc(Cl)nc(Cl)c32)cc1 | 1.43 µM | 3.24 µM | 28.3 µM | 2.86 µM | 2.92 µM | 5.26 µM | 3.54 µM | 1.14 µM | 1.26 µM | 2.88 µM | 0.629 µM | 1.6 µM | 1.68 µM | 1.5 µM | 0.946 µM | 1.68 µM | 1.8 µM | 0.593 µM | 0.235 µM | 1.41 µM
COc1cc2c(cc1OCCCN1CCN(CCCn3c4ccccc4c4ccccc43)CC1)N=C[C@@H]1CCCN1C2=O | 0.289 µM | 0.432 µM | 0.0483 µM | 1.17 µM | 1.48 µM | 0.257 µM | 0.648 µM | 0.49 µM | 3.93 µM | 0.491 µM | 0.0362 µM | 0.102 µM | 0.0106 µM | 0.148 µM | 0.323 µM | 0.044 µM | 0.0625 µM | 0.225 µM | 0.156 µM | 0.174 µM
O=C1COc2c(CCNCCN(C(=O)CCNCCc3ccc(Cl)c(Cl)c3)C3CCCCC3)ccc(O)c2N1 | 30.3 µM | 39.6 µM | 33.8 µM | > 74.9 µM | 35.9 µM | 34.5 µM | 28.4 µM | 29.7 µM | 28.4 µM | 31 µM | 14.7 µM | 21.9 µM | 14.5 µM | > 45.9 µM | 17.7 µM | 15.8 µM | 13.6 µM | 15.1 µM | 14.6 µM | 16 µM
NC1=NN(c2ccccc2)C(=O)C1/C(=N\NC(=O)c1cc2ccccc2cc1O)C(=O)Nc1ccc(Cl)cc1 (centres undefined) | 89.3 µM | > 100 µM | 96.1 µM | > 100 µM | > 100 µM | 40.5 µM | > 100 µM | 69.3 µM | > 100 µM | 96.1 µM |  |  |  |  |  |  |  |  |  | 
O=C(NCc1cccnc1)c1ccc([N+](=O)[O-])o1 | > 22.1 µM | 7.88 µM | > 32.5 µM | 13.3 µM | 13.2 µM | > 32.5 µM | 18 µM | 3.76 µM | 13.4 µM | > 14.7 µM | 4.83 µM | 1.56 µM | 4.72 µM | 2.39 µM | 4.21 µM | > 20 µM | 5.64 µM | 1.12 µM | 1.42 µM | 2.83 µM
c1csc(-c2[nH]nc3c2CCc2ccccc2-3)c1 | 55 µM | 50.4 µM | 55.4 µM | 58.1 µM | 42.2 µM | 53.8 µM | 32.4 µM | 29 µM | 29.3 µM | 34.9 µM | 16.7 µM | 19.8 µM | 15.6 µM | 19.6 µM | 13.5 µM | 14.9 µM | 0.959 µM | 12.9 µM | 14.9 µM | 6.4 µM
O=C1C(=O)c2c(ccc3ccccc23)-c2ccccc21 | 5.73 µM | 3.44 µM | 5.26 µM | > 100 µM | 5.02 µM | 6.83 µM | 7.45 µM | 4.07 µM | 2.87 µM | > 100 µM | 1.77 µM | 1.63 µM | 0.752 µM | 2.7 µM | 2.02 µM | 2.37 µM | 2.54 µM | 1.89 µM | 0.384 µM | 2.39 µM
O=C(COC(=O)[C@H](C[Se][Se]C[C@H](NC(=O)c1ccc(Br)cc1F)C(=O)OCC(=O)c1ccc(F)cc1)NC(=O)c1ccc(Br)cc1F)c1ccc(F)cc1 | 1.18 µM | 1.64 µM | 0.593 µM | 2.66 µM | 3.63 µM | 71.3 µM | 2.72 µM | 1.8 µM | 3.52 µM | 2.79 µM | 0.52 µM | 0.639 µM | 0.132 µM | 0.716 µM | 1.02 µM | 3.54 µM | 0.951 µM | 0.684 µM | 1.02 µM | 1.11 µM
O=[N+]([O-])c1cccc(C2=NOC3CCCC23)c1 (centres undefined) | > 100 µM | > 100 µM | > 100 µM | > 100 µM | > 100 µM | > 100 µM | > 100 µM | > 100 µM | > 100 µM | > 100 µM |  |  |  |  |  |  |  |  |  | 
O=C(CO[N+](=O)[O-])OCC(=O)c1ccccc1 | > 100 µM | > 100 µM | > 100 µM | > 100 µM | > 100 µM | > 100 µM | > 100 µM | > 100 µM | > 100 µM | > 100 µM |  |  |  |  |  |  |  |  |  | 
O=C(Nc1cccc(C(F)(F)F)c1)Nc1ccc(OCc2nnc(-c3ccccc3)o2)c(F)c1 | 78.2 µM |  | 6.2 µM | 37.4 µM | 52 µM | 39.8 µM | > 100 µM | 23.2 µM | 16.5 µM | 21 µM | 12.3 µM | 3.35 µM | 1.67 µM | 6.68 µM | 10.7 µM | 3.59 µM | 18.9 µM | 5.1 µM | 3.02 µM | 3.11 µM
Cn1c(=O)c(-c2c(Cl)cccc2Cl)cc2cnc(Nc3ccc(N4CCOCC4)cc3)nc21 | > 27.9 µM | 0.491 µM | 1.78 µM | 0.0806 µM | > 100 µM | 0.804 µM | 0.799 µM | 0.113 µM | 0.148 µM | 6.66 µM | 0.391 µM | 0.0196 µM | 0.356 µM | < 0.01 µM | 0.0748 µM | < 0.0476 µM | 0.0349 µM | < 0.0451 µM | < 0.01 µM | 2.29 µM
